By Ki is commonly meant a dissociation constant, usually derived from enzyme kinetics or from competition with a known ligand.

Assay [1] addresses isolated recombinant JAK1 kinase domain (Homo sapiens (Human), UniProt P23458). Description: JAK1 enzyme assay (Caliper LabChip, peptide phosphorylation). The class given is biochemical. The following applies: isolated recombinant JAK1 kinase domain, 25 μM ATP.
The target in assay [2] is isolated recombinant JAK2 kinase domain (Homo sapiens (Human), UniProt O60674). Description: JAK2 enzyme assay (Caliper LabChip, peptide phosphorylation). The class given is biochemical. The settings on record: 25 μM ATP.
isolated recombinant JAK2 kinase domain, sequence (O60674 849-1124): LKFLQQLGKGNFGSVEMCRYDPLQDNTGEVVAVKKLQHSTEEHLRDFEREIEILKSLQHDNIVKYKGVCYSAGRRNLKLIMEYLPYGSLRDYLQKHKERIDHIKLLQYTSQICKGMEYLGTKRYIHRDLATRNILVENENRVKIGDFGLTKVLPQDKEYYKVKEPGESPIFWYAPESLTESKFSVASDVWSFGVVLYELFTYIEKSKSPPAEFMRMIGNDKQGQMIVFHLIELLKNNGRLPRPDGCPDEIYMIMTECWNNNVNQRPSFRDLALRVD

The structures appear in SMILES notation.

isolated recombinant JAK1 kinase domain, sequence (P23458 875-1153): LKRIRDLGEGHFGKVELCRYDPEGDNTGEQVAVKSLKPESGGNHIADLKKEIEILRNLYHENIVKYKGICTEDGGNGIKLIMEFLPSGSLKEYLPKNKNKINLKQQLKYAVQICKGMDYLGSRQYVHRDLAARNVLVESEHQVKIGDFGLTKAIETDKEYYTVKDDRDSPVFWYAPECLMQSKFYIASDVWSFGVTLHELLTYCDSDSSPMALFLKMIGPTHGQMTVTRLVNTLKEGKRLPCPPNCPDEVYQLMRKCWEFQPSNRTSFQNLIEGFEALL

For the compound `Nc1nn2cccnc2c1C(=O)Nc1cn(CC(=O)N2CC3CNCC3C2)nc1-c1cc(Cl)ccc1OC(F)F` (stereo not shown) [Example 10, N-[1-[2-(2,3,3a,4,6,6a-hexahydro-1H-pyrrolo[3,4-c]pyrrol-5-yl)-2-oxo-ethyl]-3-[5-chloro-2-(difluoromethoxy)phenyl]pyrazol-4-yl]-2-amino-pyrazolo[1,5-a]pyrimidine-3-carboxamide], the Ki in assay [1] was found to be 0.65 nM; in assay [2], 0.32 nM.

For the compound `CN1CCC2CN(C(=O)Cn3cc(NC(=O)c4cnn5cccnc45)c(-c4cc(Cl)ccc4OC(F)F)n3)CC2C1` (stereo not shown) [Example 30, N-[3-[5-chloro-2-(difluoromethoxy)phenyl]-1-[2-(5-methyl-3,3a,4,6,7,7a-hexahydro-1H-pyrrolo[3,4-c]pyridin-2-yl)-2-oxo-ethyl]pyrazol-4-yl]pyrazolo[1,5-a]pyrimidine-3-carboxamide], the values for the Ki in assay [1] and in assay [2] were 0.7 nM and 1.69 nM, respectively.

For `CS(=O)(=O)N1CCC(CN2C[C@@H]3CN(C(=O)Cn4cc(NC(=O)c5cnn6cccnc56)c(-c5cc(Cl)ccc5OC(F)F)n4)C[C@@H]3C2)CC1` [Example 34, N-[1-[2-[(3aR,6aS)-2-[(1-methylsulfonyl-4-piperidyl)methyl]-1,3,3a,4,6,6a-hexahydropyrrolo[3,4-c]pyrrol-5-yl]-2-oxo-ethyl]-3-[5-chloro-2-(difluoromethoxy)phenyl]pyrazol-4-yl]pyrazolo[1,5-a]pyrimidine-3-carboxamide], the Ki in assay [1] stood at 0.47 nM; in assay [2], 0.46 nM.

In the case of `CN(C)C1CN(C(=O)Cn2cc(NC(=O)c3cnn4cccnc34)c(-c3cc(Cl)ccc3OC(F)F)n2)C1` [Example 64, N-[3-[5-chloro-2-(difluoromethoxy)phenyl]-1-[2-[3-(dimethylamino)azetidin-1-yl]-2-oxo-ethyl]pyrazol-4-yl]pyrazolo[1,5-a]pyrimidine-3-carboxamide], the Ki is 0.66 nM in assay [1] and 0.84 nM in assay [2].

As for `CN(C)C[C@H]1CCCN(C(=O)Cn2cc(NC(=O)c3cnn4cccnc34)c(-c3cc(Cl)ccc3OC(F)F)n2)C1` [Example 71, N-[3-[5-chloro-2-(difluoromethoxy)phenyl]-1-[2-[(3R)-3-[(dimethylamino)methyl]-1-piperidyl]-2-oxo-ethyl]pyrazol-4-yl]pyrazolo[1,5-a]pyrimidine-3-carboxamide], the Ki in assay [1] came to 1.06 nM; in assay [2], 4.66 nM.

Turning to `CN(C)CCOC1CCN(C(=O)Cn2cc(NC(=O)c3cnn4cccnc34)c(-c3cc(Cl)ccc3OC(F)F)n2)CC1` [Example 73, N-[3-[5-chloro-2-(difluoromethoxy)phenyl]-1-[2-[4-[2-(dimethylamino)ethoxy]-1-piperidyl]-2-oxo-ethyl]pyrazol-4-yl]pyrazolo[1,5-a]pyrimidine-3-carboxamide], the Ki was 0.71 nM in assay [1] and 1.71 nM in assay [2].

As for `Nc1nn2cccnc2c1C(=O)Nc1cn(CC(=O)N2CCC(N3CC[C@@H](O)C3)CC2)nc1-c1cc(Cl)ccc1OC(F)F` [Example 76, 2-amino-N-[3-[5-chloro-2-(difluoromethoxy)phenyl]-1-[2-[4-[(3R)-3-hydroxypyrrolidin-1-yl]-1-piperidyl]-2-oxo-ethyl]pyrazol-4-yl]pyrazolo[1,5-a]pyrimidine-3-carboxamide], the Ki was 0.5 nM in assay [1] and 0.52 nM in assay [2].

Regarding `CN(C1CCN(C(=O)Cn2cc(NC(=O)c3cnn4cccnc34)c(-c3cc(Cl)ccc3OC(F)F)n2)CC1)C(Cc1ccccc1)C(F)(F)F` (stereo not shown) [Example 133, N-[1-[2-[4-[(1-benzyl-2,2,2-trifluoro-ethyl)-methyl-amino]-1-piperidyl]-2-oxo-ethyl]-3-[5-chloro-2-(difluoromethoxy)phenyl]pyrazol-4-yl]pyrazolo[1,5-a]pyrimidine-3-carboxamide], the Ki in assay [1] was found to be 6.51 nM; in assay [2] it was 8.33 nM.

Regarding `CN(C)CCOC1CCN(C(=O)Cn2cc(NC(=O)c3c(N)nn4cccnc34)c(-c3cc(Cl)ccc3OC(F)F)n2)CC1` [Example 137, 2-amino-N-[3-[5-chloro-2-(difluoromethoxy)phenyl]-1-[2-[4-[2-(dimethylamino)ethoxy]-1-piperidyl]-2-oxo-ethyl]pyrazol-4-yl]pyrazolo[1,5-a]pyrimidine-3-carboxamide], the Ki is 0.53 nM in assay [1] and 0.72 nM in assay [2].

With `CN(C)C1CN(C(=O)Cn2cc(NC(=O)c3c(N)nn4cccnc34)c(-c3cc(Cl)ccc3OC(F)F)n2)C1` [Example 138, 2-amino-N-[3-[5-chloro-2-(difluoromethoxy)phenyl]-1-[2-[3-(dimethylamino)azetidin-1-yl]-2-oxo-ethyl]pyrazol-4-yl]pyrazolo[1,5-a]pyrimidine-3-carboxamide], in assay [1], the Ki stood at 0.52 nM.

As to `Nc1nn2cccnc2c1C(=O)Nc1cn([C@@H]2CCNC2)nc1-c1cc(Cl)ccc1OC(F)F` [Example 185, 2-amino-N-[3-[5-chloro-2-(difluoromethoxy)phenyl]-1-[(3R)-pyrrolidin-3-yl]pyrazol-4-yl]pyrazolo[1,5-a]pyrimidine-3-carboxamide], the inhibition constant Ki in assay [1] turned out to be 0.59 nM; in assay [2], 0.31 nM.

As to `CN(CC1(C#N)CCCCC1)C1CCN(C(=O)c2ccc(-n3cc(NC(=O)c4cnn5cccnc45)c(-c4cc(Cl)ccc4OC(F)F)n3)cc2)CC1` [Example 187, N-[3-[5-chloro-2-(difluoromethoxy)phenyl]-1-[4-[4-[(1-cyanocyclohexyl)methyl-methyl-amino]piperidine-1-carbonyl]phenyl]pyrazol-4-yl]pyrazolo[1,5-a]pyrimidine-3-carboxamide], the inhibition constant (Ki) in assay [1] came to 7.05 nM; in assay [2], 9.03 nM.

As for `CN(CC1(C#N)CCCCC1)C1CCN(c2nc(-c3cc(Cl)ccc3OC(F)F)c(NC(=O)c3cnn4cccnc34)s2)CC1` [Example 203, N-[4-[5-chloro-2-(difluoromethoxy)phenyl] 2-[4-[(1-cyanocyclohexyl)methyl-methyl-amino]-1-piperidyl]thiazol-5-yl]pyrazolo[1,5-a]pyrimidine-3-carboxamide], the Ki in assay [1] amounted to 5.48 nM; in assay [2], 4.15 nM.

With `CN1CCC2(CC1)CN(C(=O)Cn1cc(NC(=O)c3c(N)nn4cccnc34)c(-c3cc(Cl)ccc3OC(F)F)n1)CCO2` [Example 215, 2-amino-N-[3-[5-chloro-2-(difluoromethoxy)phenyl]-1-[2-(9-methyl-1-oxa-4,9-diazaspiro[5.5]undecan-4-yl)-2-oxo-ethyl]pyrazol-4-yl]pyrazolo[1,5-a]pyrimidine-3-carboxamide], the Ki in assay [1] was 1.33 nM.

On to `C[C@@H]1CN(C(=O)Cn2cc(NC(=O)c3c(N)nn4cccnc34)c(-c3cc(Cl)ccc3OC(F)F)n2)C[C@H](C)N1` [Example 251, 2-amino-N-[3-[5-chloro-2-(difluoromethoxy)phenyl]-1-[2-[(3R,5S)-3,5-dimethylpiperazin-1-yl]-2-oxo-ethyl]pyrazol-4-yl]pyrazolo[1,5-a]pyrimidine-3-carboxamide], for which the Ki in assay [1] amounted to 0.83 nM.

Consider `Nc1nn2cccnc2c1C(=O)Nc1cn(CC(=O)N2CC[C@H](O)C2)nc1-c1cc(Cl)ccc1OC(F)F` [Example 270, 2-amino-N-[3-[5-chloro-2-(difluoromethoxy)phenyl]-1-[2-[(3S)-3-hydroxypyrrolidin-1-yl]-2-oxo-ethyl]pyrazol-4-yl]pyrazolo[1,5-a]pyrimidine-3-carboxamide], for which the inhibition constant Ki in assay [2] turned out to be 0.2 nM.

The values above are taken from US9346815B2, “5-chloro-2-difluoromethoxyphenyl pyrazolopyrimidine compounds, compositions and methods of use thereof” (Genentech, Inc., priority 2014, dated 2016).
